# Assay results reported in patent US11690845B2, “Methods of administering elagolix” (priority 2020, dated 2023).
# Assays:
# [1] = Drug interaction studies: pharmacokinetics of co-administered drug in the presence of elagolix; assay type: in vivo, human; details: for changes in exposures when co-administered with elagolix: elagolix 300 mg twice daily
# Description: Drug interaction studies were performed with elagolix and other drugs likely to be co-administered and with drugs commonly used as probes for pharmacokinetic interactions. Tables 7 and 8 summarize the pharmacokinetic effects when elagolix was co-administered with these drugs.
# clinical = details: human, in vivo
# Description: Subjects: Twenty adult premenopausal female subjects were enrolled in the study.
# Beginning on Day 3, subjects received elagolix 300 mg BID under fasting conditions every day until Day 10. […] Doses of elagolix were separated by approximately 12 hours.
# Testing was performed for CYP2C19 variants including the *2 (rs4244285), *3 (rs4986893), *4 (rs28399504), *8 (rs41291556), *10 (rs6413438) and *12 (rs55640102) alleles.
# Safety was evaluated during confinement and at each study visit through adverse event monitoring, vital signs measurements, physical examinations, and routine laboratory tests.
# [2] = Drug interactions: effects of ORIAHNN on plasma exposure of other drugs; details: co-administration of ORIAHNN
# CYP3A = assay: Substrate of / metabolism by CYP3A; assay type: in vitro ADME
# [3] = Drug-drug interaction study: effect of elagolix on pharmacokinetics of CYP2B6 substrate bupropion and OH-bupropion; safety; details: for Tmax / Metabolite to Parent AUCinf Ratio / Metabolite to Parent AUCt Ratio / Metabolite to Parent Cmax Ratio: median; for Tmax: N = 24; for t1/2: harmonic mean; for AUCinf / AUCt / Cmax: mean
# Description: Subjects: Twenty four (24) adult premenopausal women in generally good health participated in this study.
# Elagolix 300 mg BID (as 300 mg immediate release tablets) was administered in the morning and evening on days 1 through 14 in period 2. […] No food was consumed for 2 hours prior to the evening doses of elagolix continuing through 2 hours after. The doses of elagolix were separated by approximately 12 hours.
# Individual PK parameters (peak concentration [Cmax] and area under the concentration-time curve [AUC]) were estimated using noncompartmental methods.
# Central value ratios (90% confidence intervals) for Cmax, AUC, and metabolite to parent ratios (MPRs) (day 11, period 2 vs. day 1, period 1) were calculated to assess the DDIs. Safety was evaluated through assessment of adverse events, vital signs, electrocardiogram, and clinical laboratory tests.
# Adverse events (AEs) were monitored throughout the DDI study. Additional safety evaluations included monitoring of physical examinations, vital signs, electrocardiogram variables, and clinical laboratory values were assessed
# [4] = Digoxin 0.5 mg single dose, elagolix 200 mg twice daily ×10 days, N 11
# [5] = Bupropion + Elagolix (Day 11, Period 2)
# [6] = Bupropion Alone (Day 1, Period 1)
# [7] = single 150 mg bupropion, elagolix 300 mg twice daily for 10 preceding days, interval in brackets
# [8] = Midazolam 2 mg single dose, elagolix 150 mg once daily ×13 days, N 11
# [9] = Midazolam 2 mg single dose, elagolix 300 mg twice daily ×11 days, N 20
# [10] = Rosuvastatin 20 mg once daily, elagolix 300 mg twice daily ×7 days, N 10
smiles,measurement,setting,value
"CC(NC(C)(C)C)C(=O)c1cccc(Cl)c1.Cl (racemic) [bupropion, (±)-1-(3-chlorophenyl)-2-[(1,1-dimethylethyl)amino]-1-propanone hydrochloride]",changes in exposures when co-administered with elagolix,[1],No clinically significant changes
COc1ccc2nc([S+]([O-])Cc3ncc(CO)c(OC)c3C)[nH]c2c1 (stereo not shown) [5-hydroxyomeprazole],decrease in AUCinf with elagolix,clinical,20-30%
same,AUCinf,clinical; 40 mg,1880 ng·h/mL
same,AUCt,clinical; 40 mg,1820 ng·h/mL
same,Cmax,clinical; 40 mg,491 ng/mL
same,t1/2,clinical; 40 mg,1.57 h
same,decrease in AUCinf with elagolix,clinical; 300 mg,~25%
same,decrease in Cmax with elagolix,clinical; 300 mg,approximately 30%
C[C@H]1O[C@@H](O[C@H]2[C@@H](O)C[C@H](O[C@H]3[C@@H](O)C[C@H](O[C@H]4CC[C@@]5(C)[C@H](CC[C@@H]6[C@@H]5C[C@@H](O)[C@]5(C)[C@@H](C7=CC(=O)OC7)CC[C@]65O)C4)O[C@@H]3C)O[C@@H]2C)C[C@H](O)[C@@H]1O [digoxin],"Ratio (90% CI) AUC, co-administration with elagolix vs medication alone",[1]; [4],1.26
same,"Ratio (90% CI) Cmax, co-administration with elagolix vs medication alone",[1]; [4],1.71
same,Effect on Plasma Exposure of Concomitant Drug (AUC),[2],↑ digoxin
C[C@]12CC[C@@H]3c4ccc(O)cc4CC[C@H]3[C@@H]1CC[C@@H]2O [estradiol],metabolism by CYP3A,CYP3A,metabolized partially
OC(Cn1cncn1)(Cn1cncn1)c1ccc(F)cc1F [fluconazole],changes in exposures when co-administered with elagolix,[1],No clinically significant changes
C[C@H]1NC(C)(C)CO[C@]1(O)c1cccc(Cl)c1 [hydroxybupropion],Tmax,"[3]; Bupropion + Elagolix (Day 11, Period 2), elagolix 300 mg BID",6.0 h
same,t1/2,[3]; [5],20.5 h
same,AUCinf,[3]; [5],17600 ng·h/mL
same,AUCt,[3]; [5],17000 ng·h/mL
same,Cmax,[3]; [5],429 ng/mL
same,Metabolite to Parent AUCinf Ratio,[3]; [5],15.9
same,Metabolite to Parent AUCt Ratio,[3]; [5],15.9
same,Metabolite to Parent Cmax Ratio,[3]; [5],3.92
same,Tmax,"[3]; Bupropion Alone (Day 1, Period 1), 150 mg single dose",10.0 h
same,t1/2,[3]; [6],24.7 h
same,AUCinf,[3]; [6],16700 ng·h/mL
same,AUCt,[3]; [6],15700 ng·h/mL
same,Cmax,[3]; [6],323 ng/mL
same,Metabolite to Parent AUCinf Ratio,[3]; [6],15.7
same,Metabolite to Parent AUCt Ratio,[3]; [6],15.4
same,Metabolite to Parent Cmax Ratio,[3]; [6],3.61
same,increase in Cmax upon co-administration with elagolix,[3]; elagolix 300 mg BID,32%
same,changes in OH-bupropion/bupropion ratios of Cmax and AUC upon co-administration with elagolix,"[3]; elagolix 300 mg BID, minimal changes",≤ 120%
same,"AUCinf ratio, co-administration of bupropion with elagolix vs bupropion alone (A/B)",[3]; [7],about 1.063
same,"Cmax ratio, co-administration of bupropion with elagolix vs bupropion alone (A/B)",[3]; [7],about 1.317
Cc1ncc2n1-c1ccc(Cl)cc1C(c1ccccc1F)=NC2 [midazolam],"Ratio (90% CI) AUC, co-administration with elagolix vs medication alone",[1]; [8],0.65
same,"Ratio (90% CI) Cmax, co-administration with elagolix vs medication alone",[1]; [8],0.81
same,"Ratio (90% CI) AUC, co-administration with elagolix vs medication alone",[1]; [9],0.46
same,"Ratio (90% CI) Cmax, co-administration with elagolix vs medication alone",[1]; [9],0.56
same,Effect on Plasma Exposure of Concomitant Drug (AUC),[2],↓ midazolam
C#C[C@]1(OC(C)=O)CC[C@H]2[C@@H]3CCC4=CC(=O)CC[C@@H]4[C@H]3CC[C@@]21C [norethindrone acetate],metabolism by CYP3A,CYP3A,metabolized partially
COc1ccc2nc(S(=O)(=O)Cc3ncc(C)c(OC)c3C)[nH]c2c1 [omeprazole sulfone],"M:P AUCinf Ratio, Relative Bioavailability Point Estimate",clinical; female,1.246
same,"M:P AUCt Ratio, Relative Bioavailability Point Estimate",clinical; female,1.497
same,increase in exposures with elagolix,clinical; female,~3 fold
same,Cmax,"clinical; female, 40 mg",162 ng/mL
same,"M:P AUCinf Ratio, Central Value Reference","clinical; female, 40 mg",0.825
same,"M:P AUCt Ratio, Central Value Reference","clinical; female, 40 mg",0.679
same,RAUCinf (metabolite-to-parent AUCinf ratio),"clinical; female, 40 mg",0.85
same,RAUCt (metabolite-to-parent AUCt ratio),"clinical; female, 40 mg",0.76
same,increase in AUCinf with elagolix,"clinical; female, 300 mg",2.5 fold
same,increase in Cmax with elagolix,"clinical; female, 300 mg",2.7 fold
same,increase in M:P AUCinf ratio with elagolix,"clinical; female, 300 mg",25%
same,Cmax and AUCinf values upon co-administration with elagolix (direction of change),clinical,increased
"COc1ccc2[nH]c([S+]([O-])Cc3ncc(C)c(OC)c3C)nc2c1 (stereo not shown) [omeprazole, 5-methoxy-2-[[(4-methoxy3,5-dimethyl-2-pyridinyl)methyl]sulfinyl]-1H-benzimidazole, reference compound]",decrease in AUCinf with elagolix,clinical; female,40%
same,increase in AUCinf with elagolix,"clinical; female, 300 mg",1.8 fold
same,increase in Cmax with elagolix,"clinical; female, 300 mg",1.9 fold
same,increase in exposure (AUCinf) with elagolix,"clinical; female, im",2-2.5 fold
same,Cmax and AUCinf values upon co-administration with elagolix (direction of change),clinical,increased
same,Effect on Plasma Exposure of Concomitant Drug (AUC),[2],↑ omeprazole
CC(C)c1nc(N(C)S(C)(=O)=O)nc(-c2ccc(F)cc2)c1/C=C/[C@@H](O)C[C@@H](O)CC(=O)O [rosuvastatin],"Ratio (90% CI) AUC, co-administration with elagolix vs medication alone",[1]; [10],0.60
same,"Ratio (90% CI) Cmax, co-administration with elagolix vs medication alone",[1]; [10],0.99
same,Effect on Plasma Exposure of Concomitant Drug (AUC),[2],↓ rosuvastatin
CN[C@H]1CC[C@@H](c2ccc(Cl)c(Cl)c2)c2ccccc21 [sertraline],changes in exposures when co-administered with elagolix,[1],No clinically significant changes
